What is called half-life is the time needed for the level to fall by half in the phase considered. Lower therefore signals rapid decline. In general, IC50 refers to the concentration that gives 50% inhibition.

Calls of active or inactive are those of the source. Some results are limits rather than exact numbers.

The source of these data is ChEMBL document CHEMBL4422615, “Novel non-xanthine antagonist of the A2B adenosine receptor: From HTS hit to lead structure” (Eur J Med Chem, 2019).

Series [1] can be described thus: Half life in mouse at 1 mg/kg, iv administered as bolus dose by HPLC-MS/MS analysis. Particulars: in vivo. Format: ADME, organism-based.
For series [2], the target named is T1, Adenosine receptor A2b (Homo sapiens, UniProt P29275).
T1 sequence (P29275 whole entry): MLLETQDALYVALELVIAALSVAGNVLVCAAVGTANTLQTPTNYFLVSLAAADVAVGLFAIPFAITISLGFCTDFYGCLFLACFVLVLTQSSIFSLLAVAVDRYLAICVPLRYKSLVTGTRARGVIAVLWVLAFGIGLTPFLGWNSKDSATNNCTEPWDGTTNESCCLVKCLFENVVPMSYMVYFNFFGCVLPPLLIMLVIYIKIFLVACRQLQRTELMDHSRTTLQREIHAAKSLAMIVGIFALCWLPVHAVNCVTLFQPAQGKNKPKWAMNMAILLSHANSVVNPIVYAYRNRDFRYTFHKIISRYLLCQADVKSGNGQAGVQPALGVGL
Briefly: Antagonist activity at recombinant human A2B adenosine receptor expressed in CHO cells after 3 to 4 hrs by luciferase reporter gene assay. Format: cell-based. (In general: Reporter assays use an easily measured gene product as a stand-in for the process of interest.)

For another series, the target named is T2, Adenosine receptor A3 (Mus musculus, UniProt Q61618).
T2 sequence (Q61618 whole entry): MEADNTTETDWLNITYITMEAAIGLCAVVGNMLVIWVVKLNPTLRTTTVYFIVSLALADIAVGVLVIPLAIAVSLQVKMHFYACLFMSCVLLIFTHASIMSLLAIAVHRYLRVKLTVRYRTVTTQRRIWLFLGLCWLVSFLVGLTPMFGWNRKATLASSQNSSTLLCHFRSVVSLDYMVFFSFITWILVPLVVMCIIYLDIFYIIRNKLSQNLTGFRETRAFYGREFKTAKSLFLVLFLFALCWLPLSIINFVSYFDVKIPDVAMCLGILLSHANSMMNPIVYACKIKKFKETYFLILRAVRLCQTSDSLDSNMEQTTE
Nature of the series: Antagonist activity at recombinant mouse A3 adenosine receptor expressed in CHO cells after 3 to 4 hrs by luciferase reporter gene assay. The format is cell-based.

Series [3] can be described thus: Toxicity in silica-induced C57BL/6J mouse pulmonary fibrosis model assessed as change in body weight at 100 to 500 mg/kg, bid administered via gavage treated from day 1 until day 7 after silica application. The format is organism-based. The settings on record: in vivo, po.
The target of series [4] is T1, Adenosine receptor A2b. Nature of the series: Displacement of [3H]DPCPX from human A2B adenosine receptor expressed in HEK293 cell membranes after 60 mins by radioligand displacement assay.
The nature of series [5]: Volume of distribution at steady state in dog at 0.3 mg/kg, iv administered as infusion for 15 mins by HPLC-MS/MS analysis. The format is ADME, organism-based, Canis lupus familiaris. The settings on record: in vivo, read-out: Vdss.
The next series concerns Mus musculus. Briefly: Antifibrotic activity in silica-induced C57BL/6J mouse pulmonary fibrosis model assessed as reduction in TGF-beta level in lung tissue homogenate at 100 to 500 mg/kg, bid administered via gavage treated from day 1 until day 7 after silica application by ELISA. Format: functional, organism-based.

`CCn1c(=O)c2c(C)c(C(=O)N3CCC(O)CC3)sc2n(CCC(F)(F)F)c1=O` showed a half-life in series [1] of 2.1 h. In addition, the results for the IC50 on Adenosine receptor A2b [2], on Adenosine receptor A3 and at Adenosine receptor A2b [4] were 0.066 µM, > 6.7 µM and 0.059 to 0.066 µM, respectively. In addition, the Activity result in series [3] is listed as “Non-Toxic”. Besides, the Vd in series [5] stood at 2 L/kg. In addition, the result in the series on Mus musculus was Active.
